According to patent US6355658B1, “Coumarin derivatives, methods of preparation and application as medicines” (Centre National de la Recherche Scientifique, priority 1997, dated 2002):
Where two headings read alike, the source gives them in different places.

How the values were obtained:
bovine α-chymotrypsin = molecular target: T1, bovine α-chymotrypsin (Bos taurus, UniProt P00766); test: Inactivation kinetics of bovine α-chymotrypsin (chromogenic substrate Suc-Ala2-Pro-Phe-pNA); type: biochemical; conditions: 25° C., pH 7.5, N.I. = non-inactivator; for kinact/KI: TABLE 1, 2-pyridyl esters, read-out: Ki/KI or kobs/[I], α-CT
T1 construct: bovine α-chymotrypsin
Method: (§1) The inactivating or inhibitory properties of the coumarin derivatives were tested with respect to a certain number of enzymes: human leukocyte elastase, bovine α-chymotrypsin, human thrombin and bovine trypsin. The kinetic measurements were taken at 25° C. in the following buffers: 0.1 M Hepes, 0.5 M NaCl, 0.01% Tween 80, pH 8.0 (human leukocyte elastase); 0.025 M NaH2PO4, 0.05 M KCl, pH 7.5 (α-chymotrypsin); 0.01 M Tris, 0.01 M Hepes, 0.1 M NaCl, 0.1% PEG-6000, pH 7.5 (human thrombin); 0.1 M Tris, 0.01 M CaCl2, pH 7.5 (bovine trypsin). The chromogenic substrates used to determine the activity of the enzymes are: MeOSuc-Ala2-Pro-Val-pNA (human leukocyte elastase); Suc-Ala2-Pro-Phe-pNA (α-chymotrypsin); H-D-Phe-Pip-Arg-pNA (human thrombin); N-benzoyl-Arg-pNA (bovine trypsin) (pNA: para-nitroaniline).
(§2) The interaction of a suicide substrate with a serine protease corresponds to the minimum reaction scheme described in equation 1 in which E represents the enzyme, I represents the inhibitor, E-I represents the acyl-enzyme and E-I′ represents the inactivated enzyme [Silverman R. B., 1988, “Mechanism-based enzyme inactivation: chemistry and enzymology”, volume 1 CRC Press, Boca Raton, Fla.]: [drawing 76]
(§3) When k4 is small compared to k3, equation 1 can be simplified (equation 2, [Daniels et al., 1983, J. Biol. Chem., 258: 15046-15053]): [drawing 77]
(§4) Considering the first instants of the reaction, the system reduces to a simplified equation of the form of equation 2.
(§5) The kinetic constants characterizing the inactivation of the enzymes with the coumarin derivatives were determined using either the conventional sampling method (or batchwise method) or a method placing the inhibitor and the substrate in competition (or continuous method); these methods are described by Pochet et al. [Pochet et al., 1996, J. Med. Chem., 39: 2579-2585].
(§6) The inactivation of serine proteaaes with the coumarin derivatives is thus characterized by the following constants (see Eq. 2):
(§7) KI: apparent dissociation constant of an enzyme-inhibitor complex located upstream of ki
(§8) ki: first-order rate constant for inactivation at infinite inhibitor concentration
(§9) ki/KI: index of the overall inactivating efficacy of the inhibitor.

human leukocyte elastase = molecular target: T2, human leukocyte elastase (Homo sapiens, UniProt P08246); test: Inactivation kinetics of human leukocyte elastase (chromogenic substrate MeOSuc-Ala2-Pro-Val-pNA); type: biochemical; conditions: for kinact/KI / Ki/KI or kobs/[I], LHE: 25° C., pH 8.0; for kinact/KI: inactivation phase of transient inactivation, read-out: Ki/KI or kobs/[I], LHE; for Ki/KI or kobs/[I], LHE: inactivation phase
T2 sequence (P08246 30-247 limits assumed): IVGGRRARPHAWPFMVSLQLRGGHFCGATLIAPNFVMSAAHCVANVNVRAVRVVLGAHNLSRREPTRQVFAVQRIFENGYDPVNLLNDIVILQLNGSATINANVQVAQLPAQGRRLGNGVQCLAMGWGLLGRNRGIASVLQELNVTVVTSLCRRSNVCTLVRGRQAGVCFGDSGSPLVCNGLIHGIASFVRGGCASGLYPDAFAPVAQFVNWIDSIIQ
Method: as §1, §2, §3, §4, §5, §6, §7, §8, §9

human thrombin = molecular target: T3, human thrombin (Homo sapiens, UniProt P00734); test: Inactivation kinetics of human thrombin (chromogenic substrate H-D-Phe-Pip-Arg-pNA); type: biochemical; conditions: 25° C., pH 7.5, N.I. = non-inactivator; for kinact/KI: read-out: Ki/KI or kobs/[I], Thrombin
T3 construct: human thrombin
Method: as §1, §2, §3, §4, §5, §6, §7, §8, §9

bovine trypsin = molecular target: T4, bovine trypsin (Bos taurus, UniProt P00760); test: Inactivation kinetics of bovine trypsin (chromogenic substrate N-benzoyl-Arg-pNA); type: biochemical; conditions: 25° C., pH 7.5, N.I. = non-inactivator
T4 sequence (P00760 24-246): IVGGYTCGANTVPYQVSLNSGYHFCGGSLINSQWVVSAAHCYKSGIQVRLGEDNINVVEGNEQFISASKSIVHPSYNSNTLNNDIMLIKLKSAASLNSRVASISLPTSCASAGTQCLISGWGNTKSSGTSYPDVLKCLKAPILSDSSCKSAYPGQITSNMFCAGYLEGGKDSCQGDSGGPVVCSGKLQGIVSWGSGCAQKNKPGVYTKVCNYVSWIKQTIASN
Method: as §1, §2, §3, §4, §5, §6, §7, §8, §9

[1] = TABLE 3, no chloromethyl in position 6
[2] = TABLE 1, 2-pyridyl esters, inactivation phase

kinact/KI (human leukocyte elastase; [1]) [M⁻¹ s⁻¹]	Ki/KI or kobs/[I], LHE (human leukocyte elastase; TABLE 3) [M⁻¹ s⁻¹]	Ki/KI or kobs/[I], Trypsin (bovine trypsin; TABLE 3)	Ki/KI or kobs/[I], Trypsin (bovine trypsin; second table headed TABLE 3)	melting point	kinact/KI (bovine α-chymotrypsin) [M⁻¹ s⁻¹]	kinact/KI (human leukocyte elastase; TABLE 1, 2-pyridyl esters) [M⁻¹ s⁻¹]	Ki/KI or kobs/[I], LHE (human leukocyte elastase; TABLE 1) [M⁻¹ s⁻¹]	Ki/KI or kobs/[I], Thrombin (human thrombin; [2])	Ki/KI or kobs/[I], Thrombin (human thrombin; TABLE 1, inactivation phase)	Ki/KI or kobs/[I], Trypsin (bovine trypsin; TABLE 1, 2-pyridyl esters)	Ki/KI or kobs/[I], Trypsin (bovine trypsin; TABLE 1)	half-reactivation time for the enzyme (human leukocyte elastase; compound 750 nM, HLE 100 nM) [min]	time during which the inhibition remains at 90% (human leukocyte elastase; compound 750 nM, HLE 100 nM) [min]	inhibition at 0.75 µM (human leukocyte elastase; compound 750 nM, HLE 100 nM, reached in less than one minute) [%]	kinact/KI (human thrombin; [2]) [M⁻¹ s⁻¹]	Compound	Ki/KI or kobs/[I], α-CT (bovine α-chymotrypsin; [1])	Ki/KI or kobs/[I], α-CT (bovine α-chymotrypsin; second table headed TABLE 3)	Ki/KI or kobs/[I], Thrombin (human thrombin; TABLE 3)	Ki/KI or kobs/[I], Thrombin (human thrombin; second table headed TABLE 3)
67600	67600	N.I. N.I. N.I. N.I. N.I. N.I. N.I. — —	N.I. N.I. N.I. N.I. N.I. N.I. N.I. — —	146 to 148 °C	–	–	–	–	–	–	–	–	–	–	–	CCCC(=O)OCc1ccc2oc(=O)c(C(=O)Oc3cncc(Cl)c3)cc2c1 [Id10, 5-chloro-3-pyridyl 6-butyryloxymethyl-2-oxo-2H-1-benzopyran-3-carboxylate]	N.I.^a N.I. N.I. N.I. N.I. N.I. N.I. N.I.	N.I.^a N.I. N.I. N.I. N.I. N.I. N.I. N.I.	N.I. N.I. N.I. N.I. N.I. N.I. N.I. N.I. —	N.I. N.I. N.I. N.I. N.I. N.I. N.I. N.I. —
–	–	–	–	160 to 162 °C	3300	200	200	N.I.	N.I.	N.I.^a — — N.I. N.I.	N.I.^a — — N.I. N.I.	–	–	–	–	Cc1cccc(OC(=O)c2cc3cc(CCl)ccc3oc2=O)n1 [Ic′″10, 6-methyl-2-pyridyl 6-chloromethyl-2-oxo-2H-1-benzopyran-3-carboxylate]	–	–	–	–
32500	32500	N.I. N.I. N.I. N.I. N.I. N.I. N.I. — —	N.I. N.I. N.I. N.I. N.I. N.I. N.I. — —	215 to 217 °C	–	–	–	–	–	–	–	35	80	90	–	Cc1ccc2oc(=O)c(C(=O)Oc3cncc(Cl)c3)cc2c1 [Ib2, 5-chloro-3-pyridyl 6-methyl-2-oxo-2H-1-benzopyran-3-carboxylate]	N.I.^a N.I. N.I. N.I. N.I. N.I. N.I. N.I.	N.I.^a N.I. N.I. N.I. N.I. N.I. N.I. N.I.	N.I. N.I. N.I. N.I. N.I. N.I. N.I. N.I. —	N.I. N.I. N.I. N.I. N.I. N.I. N.I. N.I. —
–	–	–	–	172 to 173 °C	107000	26000	26000	–	7200 M⁻¹ s⁻¹	–	–	–	–	–	7200	O=C(Oc1cccc(Cl)n1)c1cc2cc(CCl)ccc2oc1=O [Ic′″12, 6-chloro-2-pyridyl 6-chloromethyl-2-oxo-2H-1-benzopyran-3-carboxylate]	–	–	–	–
–	–	–	–	152 to 154 °C	5950	300	300	–	3900 M⁻¹ s⁻¹	N.I.^a — — N.I. N.I.	N.I.^a — — N.I. N.I.	–	–	–	3900	Cc1ccnc(OC(=O)c2cc3cc(CCl)ccc3oc2=O)c1 [Ic′″11, 4-methyl-2-pyridyl 6-chloromethyl-2-oxo-2H-1-benzopyran-3-carboxylate]	–	–	–	–
62000	62000	N.I. N.I. N.I. N.I. N.I. N.I. N.I. — —	N.I. N.I. N.I. N.I. N.I. N.I. N.I. — —	156 to 158 °C	–	–	–	–	–	–	–	–	–	–	–	CCC(=O)OCc1ccc2oc(=O)c(C(=O)Oc3cncc(Cl)c3)cc2c1 [Id6, 5-chloro-3-pyridyl 6-propionyloxymethyl-2-oxo-2H-1-benzopyran-3-carboxylate]	N.I.^a N.I. N.I. N.I. N.I. N.I. N.I. N.I.	N.I.^a N.I. N.I. N.I. N.I. N.I. N.I. N.I.	N.I. N.I. N.I. N.I. N.I. N.I. N.I. N.I. —	N.I. N.I. N.I. N.I. N.I. N.I. N.I. N.I. —
–	–	–	–	125 to 129 °C	1670	420	420	–	~240 M⁻¹ s⁻¹	N.I.^a — — N.I. N.I.	N.I.^a — — N.I. N.I.	–	–	–	~240	O=C(Oc1ccccn1)c1cc2cc(CCl)ccc2oc1=O [Ic′″9, 2-pyridyl 6-chloromethyl-2-oxo-2H-1-benzopyran-3-carboxylate]	–	–	–	–
–	–	–	–	171 to 172 °C	~2500	110	110	N.I.	N.I.	–	–	–	–	–	–	O=C(Oc1ccc(Cl)cn1)c1cc2cc(CCl)ccc2oc1=O [Ic′″13, 5-chloro-2-pyridyl 6-chloromethyl-2-oxo-2H-1-benzopyran-3-carboxylate]	–	–	–	–
32800	–	N.I. N.I. N.I. N.I. N.I. N.I. N.I. — —	–	–	–	–	–	–	–	–	–	–	–	–	–	O=C(Oc1cncc(Cl)c1)c1cc2ccccc2oc1=O [Ia3, 5-chloro-3-pyridyl 2-oxo-2H-1-benzopyran-3-carboxylate]	N.I.^a N.I. N.I. N.I. N.I. N.I. N.I. N.I.	–	N.I. N.I. N.I. N.I. N.I. N.I. N.I. N.I. —	–
9100	9100	–	–	230 °C (dec.)	–	–	–	–	–	–	–	–	–	–	–	Cl.NCc1ccc2oc(=O)c(C(=O)Oc3cncc(Cl)c3)cc2c1 [If3, 5-chloro-3-pyridyl 6-aminomethyl-2-oxo-2H-1-benzopyran-3-carboxylate hydrochloride]	N.I.^a N.I. N.I. N.I. N.I. N.I. N.I. N.I.	N.I.^a N.I. N.I. N.I. N.I. N.I. N.I. N.I.	N.I. N.I. N.I. N.I. N.I. N.I. N.I. N.I. —	N.I. N.I. N.I. N.I. N.I. N.I. N.I. N.I. —

Compound	kinact/KI (human leukocyte elastase; [1]) [M⁻¹ s⁻¹]	Ki/KI or kobs/[I], LHE (human leukocyte elastase; TABLE 3) [M⁻¹ s⁻¹]	Ki/KI or kobs/[I], Trypsin (bovine trypsin; TABLE 3)	Ki/KI or kobs/[I], Trypsin (bovine trypsin; second table headed TABLE 3)	melting point	kinact/KI (bovine α-chymotrypsin) [M⁻¹ s⁻¹]	kinact/KI (human leukocyte elastase; TABLE 1, 2-pyridyl esters) [M⁻¹ s⁻¹]	Ki/KI or kobs/[I], LHE (human leukocyte elastase; TABLE 1) [M⁻¹ s⁻¹]	Ki/KI or kobs/[I], Thrombin (human thrombin; [2])	Ki/KI or kobs/[I], Thrombin (human thrombin; TABLE 1, inactivation phase)	Ki/KI or kobs/[I], Trypsin (bovine trypsin; TABLE 1, 2-pyridyl esters)	Ki/KI or kobs/[I], Trypsin (bovine trypsin; TABLE 1)	half-reactivation time for the enzyme (human leukocyte elastase; compound 750 nM, HLE 100 nM) [min]	time during which the inhibition remains at 90% (human leukocyte elastase; compound 750 nM, HLE 100 nM) [min]	inhibition at 0.75 µM (human leukocyte elastase; compound 750 nM, HLE 100 nM, reached in less than one minute) [%]	kinact/KI (human thrombin; [2]) [M⁻¹ s⁻¹]	Ki/KI or kobs/[I], α-CT (bovine α-chymotrypsin; [1])	Ki/KI or kobs/[I], α-CT (bovine α-chymotrypsin; second table headed TABLE 3)	Ki/KI or kobs/[I], Thrombin (human thrombin; TABLE 3)	Ki/KI or kobs/[I], Thrombin (human thrombin; second table headed TABLE 3)
CC(C)C(=O)OCc1ccc2oc(=O)c(C(=O)Oc3cncc(Cl)c3)cc2c1 [Id9, 5-chloro-3-pyridyl 6-dimethylacetoxymethyl-2-oxo-2H-1-benzopyran-3-carboxylate]	45000	45000	N.I. N.I. N.I. N.I. N.I. N.I. N.I. — —	N.I. N.I. N.I. N.I. N.I. N.I. N.I. — —	162 to 164 °C	–	–	–	–	–	–	–	–	–	–	–	N.I.^a N.I. N.I. N.I. N.I. N.I. N.I. N.I.	N.I.^a N.I. N.I. N.I. N.I. N.I. N.I. N.I.	N.I. N.I. N.I. N.I. N.I. N.I. N.I. N.I. —	N.I. N.I. N.I. N.I. N.I. N.I. N.I. N.I. —
CC(C)(C)C(=O)OCc1ccc2oc(=O)c(C(=O)Oc3cncc(Cl)c3)cc2c1 [Id8, 5-chloro-3-pyridyl 6-trimethylacetoxymethyl-2-oxo-2H-1-benzopyran-3-carboxylate]	95500	–	N.I. N.I. N.I. N.I. N.I. N.I. N.I. — —	–	–	–	–	–	–	–	–	–	–	–	–	–	N.I.^a N.I. N.I. N.I. N.I. N.I. N.I. N.I.	–	N.I. N.I. N.I. N.I. N.I. N.I. N.I. N.I. —	–
